From PMC12406192, “Sustainable Joullié–Ugi and Continuous Flow Implementation Led to Novel Captopril-Inspired Broad-Spectrum Metallo-β-Lactamase Inhibitors” (Journal of Medicinal Chemistry, 2025)
Several values for one entry are separate records, joined by “and”; a condition that tells them apart may be missing. Identical values can stand only once. Entries after “also recorded” stand apart in the source; their conditions may differ. Marks after values point to notes of the source that are not given here.

Columns and labels:
NDM-1 [1] = target: T1, NDM-1 (Klebsiella pneumoniae, UniProt C7C422); assay: Kinetic fluorescence-based in vitro assay with fluorocillin substrate (IC50); type: biochemical; conditions: 30 min preincubation
T1 construct: made in house; host or cells: E. coli
T1 sequence (C7C422 29-270 limits assumed): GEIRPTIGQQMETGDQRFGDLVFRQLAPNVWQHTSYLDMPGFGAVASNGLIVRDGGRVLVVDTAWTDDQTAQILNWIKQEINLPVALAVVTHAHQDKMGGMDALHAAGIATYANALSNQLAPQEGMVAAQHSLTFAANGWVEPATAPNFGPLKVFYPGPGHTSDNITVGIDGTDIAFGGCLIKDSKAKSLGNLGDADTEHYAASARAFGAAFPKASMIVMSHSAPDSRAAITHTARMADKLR
Method: (§1) IC50 values were determined in a kinetic fluorescence-based in vitro assay as described previously. All compounds were preincubated with the recombinant protein for 30 min before addition of the fluorogenic substrate fluorocillin. , The inhibitory activity was also determined (expressed as the percentage of inhibition in the presence of 50 μM compound) using a spectrophotometric assay in which the hydrolysis of imipenem (the reporter substrate) was monitored (see Section for details).
(§2) The inhibitory activity of the compounds was determined using enzyme assays with recombinant NDM-1, VIM-1, VIM-2, IMP-1, and IMP-7. These enzymes were produced in E. coli and purified as previously described. , The fluorogenic substrate fluorocillin was synthesized according to the procedure described by Rukavishnikov et al. The assays were performed in 96-well format using black polystyrene plates (Corning, Corning, NY) at room temperature, and the measurements were carried out on the Tecan spectrophotometer Infinite F200 PRO (Tecan, Männedorf, Switzerland). The protein stock solutions were diluted in assay buffer (HEPES 50 mM, pH 7.5 containing 0.01%Triton X-100, buffer HX) to reach final concentrations of VIM-1–4 nM, IMP-7–0.1 nM; NDM-1–3 nM. Subsequently, 89 μL of the protein solution was mixed with 1 μL of the inhibitor diluted in DMSO (final DMSO concentration 1% at final assay volume of 100 μL) and incubated for 30 min. […] Negative controls were measured in the absence of enzyme (89 μL of assay buffer), whereas the positive controls were measured in the presence of enzyme and in the absence of inhibitors (1 μL of DMSO). Each measurement was performed in triplicate in three independent experiments. IC50 values were calculated using data obtained from measurements with at least eight different inhibitor concentrations, applying a sigmoidal dose–response (variable slope with four parameters) equation using GraphPad Prism 5 (GraphPad Software, La Jolla, CA) software. […] All assays were performed in at least in triplicate.

NDM-1 [2] = target: T1, NDM-1; assay: Spectrophotometric direct competition assay, imipenem hydrolysis (reporter substrate); type: biochemical; conditions: for Ki: competitive model, imipenem reporter substrate, read-out: K i NDM-1; for inhibition at 50 µM: read-out: percentage of inhibition NDM-1
Method: as §1, §2

IMP-1 = target: T2, IMP-1 (Serratia marcescens, UniProt P52699); assay: biochemical; conditions: read-out: percentage of inhibition IMP-1
T2 construct: made in house; host or cells: E. coli
T2 sequence (P52699 19-246, looked up, species assumed): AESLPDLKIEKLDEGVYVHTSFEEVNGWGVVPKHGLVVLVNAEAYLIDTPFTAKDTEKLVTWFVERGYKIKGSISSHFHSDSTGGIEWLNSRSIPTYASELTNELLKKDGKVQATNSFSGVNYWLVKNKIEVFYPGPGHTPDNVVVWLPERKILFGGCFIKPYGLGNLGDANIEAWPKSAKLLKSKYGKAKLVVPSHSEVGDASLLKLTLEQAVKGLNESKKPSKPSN
Method: as §1, §2

VIM-2 [3] = target: T3, VIM-2 (Escherichia coli, UniProt Q5U7L7); assay: biochemical; conditions: read-out: percentage of inhibition VIM-2
T3 construct: made in house; host or cells: E. coli
Method: as §1, §2

[4] = system: E. coli SI-M001 (bla NDM‑1 +); assay: Imipenem MIC, broth microdilution, with fixed concentration of compound; type: cell-based; conditions: compound at 32 μg/mL; median of three experiments
Method: (§3) In vitro antimicrobial susceptibility testing was performed according to established standards. […]. The strains used in the study were described elsewhere.

[5] = system: E. coli SI-G001 (bla NDM‑4 +); type: cell-based; conditions: compound at 32 μg/mL; median of three experiments
Method: (§4) In vitro antimicrobial susceptibility testing was performed according to established standards. […] The strains used in the study were described elsewhere.

[6] = system: E. coli SI–N003 (bla NDM‑7 +); type: cell-based; conditions: compound at 32 μg/mL; median of three experiments
Method: as §4

[7] = system: A. baumannii AC-54/97 (bla IMP‑2 +); assay: Imipenem MIC, broth microdilution, with fixed concentration of compound; type: cell-based; conditions: compound at 32 μg/mL; median of three experiments
Method: as §4

[8] = system: K. pneumoniae 7023 (bla VIM‑1 +); assay: as above; type: cell-based; conditions: for imipenem MIC, K. pneumoniae 7023 (bla VIM‑1 +): compound at 32 μg/mL, median of three experiments
Method: as §4

[9] = system: K. pneumoniae VA-416/02 (bla VIM‑4 +); assay: as above; type: cell-based; conditions: compound at 32 μg/mL; median of three experiments
Method: as §4

[10] = system: S. marcescens SI-1591 (bla VIM‑2 +); assay: microbe, parasite or virus in culture; type: cell-based; conditions: compound at 32 μg/mL; median of three experiments
Method: as §4

[11] = system: MBL-producing clinical isolates; assay: Synergistic activity with imipenem on the whole panel of clinical isolates; type: cell-based
Method: as §3

VIM-2 [12] = target: T3, VIM-2; assay: biochemical; conditions: for K, VIM-2 / k –2, VIM-2: from dependence of k inact on inhibitor concentration; for Kd: time-dependent inhibitors, measured at steady state, listed in Table 2 as Ki with footnote 'Measured as K d'
IMP-7 = IMP-7 (Pseudomonas aeruginosa, UniProt Q93AU3); assay: Kinetic fluorescence-based in vitro assay with fluorocillin substrate (IC50); type: biochemical; conditions: 30 min preincubation
IMP-7, sequence (Q93AU3 entry or part of it): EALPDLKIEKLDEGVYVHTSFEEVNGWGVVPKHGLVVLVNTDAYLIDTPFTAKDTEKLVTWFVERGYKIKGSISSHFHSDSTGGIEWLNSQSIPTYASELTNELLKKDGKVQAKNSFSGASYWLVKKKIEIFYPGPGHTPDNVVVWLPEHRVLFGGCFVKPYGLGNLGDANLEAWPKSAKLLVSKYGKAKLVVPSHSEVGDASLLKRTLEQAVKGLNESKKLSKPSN
Method: as §1, §2

VIM-1 = target: T4, VIM-1 (Pseudomonas aeruginosa, UniProt A0A0F7KYQ8); assay: as above; type: biochemical
T4 construct: made in house; host or cells: E. coli
Method: as §1, §2

[13] = system: K. pneumoniae T2301 (bla NDM‑1 +); assay: Imipenem MIC, broth microdilution, with fixed concentration of compound; type: cell-based; conditions: compound at 128 μg/mL; median of three experiments
Method: as §3

[14] = system: K. pneumoniae T2216 (bla VIM‑1 +); assay: as above; type: cell-based; conditions: compound at 128 μg/mL; median of three experiments
Method: as §4

[15] = system: P. aeruginosa T2325 (bla IMP‑1 +); assay: as above; type: cell-based; conditions: for imipenem MIC, P. aeruginosa T2325 (bla IMP‑1 +): compound at 128 μg/mL, median of three experiments
Method: as §4

[16] = Chemical stability of the compounds; type: physicochemical
[17] = target: T5, human angiotensin-converting enzyme 1 (ACE-1) (Homo sapiens, UniProt P12821); assay: ACE Activity Assay Kit, fluorogenic substrate; type: biochemical
T5 construct: purchased Sigma-Aldrich CS0002
T5 sequence (P12821 30-1306): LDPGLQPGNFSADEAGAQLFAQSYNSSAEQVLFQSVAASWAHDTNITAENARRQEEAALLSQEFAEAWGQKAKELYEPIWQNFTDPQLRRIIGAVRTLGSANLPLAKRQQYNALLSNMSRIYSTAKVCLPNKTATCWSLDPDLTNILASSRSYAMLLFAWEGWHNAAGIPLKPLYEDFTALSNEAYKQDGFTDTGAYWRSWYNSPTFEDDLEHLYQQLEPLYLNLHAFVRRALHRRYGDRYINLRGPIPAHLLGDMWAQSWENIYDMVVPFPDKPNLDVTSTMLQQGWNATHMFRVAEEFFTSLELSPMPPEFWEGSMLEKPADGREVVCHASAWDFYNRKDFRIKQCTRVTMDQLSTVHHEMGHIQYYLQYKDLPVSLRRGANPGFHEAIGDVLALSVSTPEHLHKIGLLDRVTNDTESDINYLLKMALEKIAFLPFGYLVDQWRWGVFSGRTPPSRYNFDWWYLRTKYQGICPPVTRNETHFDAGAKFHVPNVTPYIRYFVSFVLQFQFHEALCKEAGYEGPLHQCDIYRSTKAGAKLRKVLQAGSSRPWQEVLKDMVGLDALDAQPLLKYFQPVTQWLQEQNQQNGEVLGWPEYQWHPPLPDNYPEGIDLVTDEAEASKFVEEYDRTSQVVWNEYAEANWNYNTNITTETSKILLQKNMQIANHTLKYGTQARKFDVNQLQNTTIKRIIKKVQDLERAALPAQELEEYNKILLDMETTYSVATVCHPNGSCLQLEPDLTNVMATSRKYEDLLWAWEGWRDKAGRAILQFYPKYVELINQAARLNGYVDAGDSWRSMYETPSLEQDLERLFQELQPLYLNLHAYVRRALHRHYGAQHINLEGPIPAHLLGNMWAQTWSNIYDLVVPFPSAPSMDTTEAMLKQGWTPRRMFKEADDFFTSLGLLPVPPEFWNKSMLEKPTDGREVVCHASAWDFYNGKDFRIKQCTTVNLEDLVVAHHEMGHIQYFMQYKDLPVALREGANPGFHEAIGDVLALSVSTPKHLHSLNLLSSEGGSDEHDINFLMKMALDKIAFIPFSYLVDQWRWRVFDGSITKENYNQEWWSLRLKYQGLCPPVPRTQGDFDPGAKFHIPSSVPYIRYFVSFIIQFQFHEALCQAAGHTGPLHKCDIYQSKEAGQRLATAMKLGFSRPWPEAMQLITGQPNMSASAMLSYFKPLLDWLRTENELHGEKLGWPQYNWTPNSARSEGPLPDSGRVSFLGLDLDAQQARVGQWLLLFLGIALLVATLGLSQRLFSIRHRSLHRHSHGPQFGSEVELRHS
Method: To assess the selectivity of the compounds, their inhibitory activity on human angiotensin-converting enzyme 1 (ACE-1) was performed using the ACE Activity Assay Kit (Sigma-Aldrich cat. No. CS0002). […] Captopril (racemic mixture, D- and L-stereoisomers) was used as control in these experiments.

[18] = system: IMP-1 expressing P. aeruginosa (T2325); assay: Growth inhibition assay (OD600 growth curves); type: cell-based
Method: (§5) 4 Growth inhibition assay. […] Purple = growth control; red = 6d; blue = imipenem; green = imipenem plus 6d.
(§6) A computerized incubator (Tecan Infinite M200 pro, Crailsheim, Germany) was used to obtain the growth curves over a time course. Optical density (OD600) was measured for evaluating bacterial (i.e., K. pneumoniae NDM-1, P. aeruginosa IMP-1, K. pneumoniae VIM-1) density in suspension. Prior to each experiment, bacteria were cultured to the exponential phase (OD600 = 0.6–0.8) in cation-adjusted Mueller Hinton broth (Becton Dickinson, Heidelberg, Germany). 5 μL of diluted bacterial suspension and 100 μL of cation-adjusted Mueller Hinton broth either with or without imipenem (Arcos Organics, Schwerte, Germany) and/or the MBL inhibitor 6d were added into wells of a 96-well plate to give a final bacterial inoculum of approximately 5 × 10^5 CFU/mL. The temperature was adjusted to 37 °C. A permanent shaking speed of 450 rpm was used and was only interrupted before OD600 measurement. The optical densities of samples were recorded online every 10 min for 24 h.

[19] = system: NDM-1 expressing K. pneumoniae (T2301); assay: Growth inhibition assay (OD600 growth curves); type: cell-based
Method: as §5, §6

[20] = system: VIM-1 expressing K. pneumoniae (T2216); assay: Growth inhibition assay (OD600 growth curves); type: cell-based
Method: as §5, §6

[21] = 6d at 128 μg/mL plus imipenem at 0.5 × MIC, 24 h

Compound	IC50 (NDM-1 [1])	Ki (NDM-1 [2])	inhibition at 50 µM (NDM-1 [2])	inhibition at 50 µM (IMP-1)	inhibition at 50 µM (VIM-2 [3])	imipenem MIC, E. coli SI-M001 (bla NDM‑1 +) [4]	imipenem MIC, E. coli SI-G001 (bla NDM‑4 +) [5]	imipenem MIC, E. coli SI–N003 (bla NDM‑7 +) [6]	imipenem MIC, A. baumannii AC-54/97 (bla IMP‑2 +) [7]	imipenem MIC, K. pneumoniae 7023 (bla VIM‑1 +) [8]	imipenem MIC, K. pneumoniae VA-416/02 (bla VIM‑4 +) [9]	imipenem MIC, S. marcescens SI-1591 (bla VIM‑2 +) [10]	K, VIM-2 (VIM-2 [12])	k –2, VIM-2 (VIM-2 [12])	Kd (VIM-2 [12])	IC50 (IMP-7)	IC50 (VIM-1)	imipenem MIC, K. pneumoniae T2301 (bla NDM‑1 +) [13]	imipenem MIC, K. pneumoniae T2216 (bla VIM‑1 +) [14]	imipenem MIC, P. aeruginosa T2325 (bla IMP‑1 +) [15]	also measured
C[C@H](CS)C(=O)N1c2ccccc2C2(CCCCC2)[C@@H]1C(N)=O [6f, (R)-1′-((S)-3-Mercapto-2-methylpropanoyl)spiro[cyclohexane-1,3′-indoline]-2′-carboxamide]	4.8 µM	2100 ± 200 nM	83%	38%	92%	32 µg/mL	64 µg/mL	64 µg/mL	128 µg/mL	64 µg/mL	128 µg/mL	16 µg/mL	>20 µM	2.6 × 10^–3 s^–1	160 ± 10 nM	–	–	–	–	–	potentiation of imipenem (change of imipenem MIC) on the panel, in words [11]: unable to reduce the imipenem MIC
C[C@H](CS)C(=O)N1c2ccccc2C(C)(C)[C@@H]1C(=O)NCC(=O)O [7b, ((R)-1-((S)-3-Mercapto-2-methylpropanoyl)-3,3-dimethylindoline-2-carbonyl)glycine]	8 µM	–	74%	13%	58%	64 µg/mL	64 µg/mL	64 µg/mL	128 µg/mL	128 µg/mL	128 µg/mL	16 µg/mL	–	–	–	8.6 µM	7400 nM	8 ^c μg/mL	4 ^c μg/mL	32 ^c μg/mL	–
C[C@H](CS)C(=O)N1c2ccccc2C(C)(C)[C@@H]1C(N)=O [6b, (R)-1-((S)-3-Mercapto-2-methylpropanoyl)-3,3-dimethylindoline-2-carboxamide]	4.1 µM	–	–	–	–	–	–	–	–	–	–	–	–	–	–	1.8 µM	700 nM	16 ^c μg/mL	4 ^c μg/mL	64 ^c μg/mL	chemical stability (in words) [16]: lower chemical stability
CCC1(CC)c2ccccc2N(C(=O)[C@H](C)CS)[C@H]1C(N)=O [6d, (R)-3,3-Diethyl-1-((S)-3-mercapto-2-methylpropanoyl)indoline-2-carboxamide]	3.5 µM	2600 ± 100 nM	90%	51%	98%	32 µg/mL	32 µg/mL	64 µg/mL	128 µg/mL	16 µg/mL	64 µg/mL	8 µg/mL	>30 µM	5.0 × 10^–3 s^–1	80 ± 10 nM	3.3 µM	400 nM	16 ^c μg/mL	2 ^c μg/mL	16 ^c μg/mL	inhibition at 50 µM ([17]; 50 μM inhibitor): < 5%; inhibitory activity on ACE-1 (in words) ([17]; tested at 50 μM): negligible activity; also recorded: completely inactive; fold reduction of the imipenem MIC, VIM-1-producing K. pneumoniae isolate ([8]; in combination with imipenem): 8 fold and 4 fold; fold reduction of the imipenem MIC, IMP-1-producing P. aeruginosa isolate ([15]; in combination with imipenem): 8 fold and 4 fold; effect on the inhibitory potential of imipenem (growth curves) [18, 21]: further prolonged for several hours; intrinsic antibacterial activity (no activity up to) ([18]; inhibitor alone): > 128 µg/mL; effect on the inhibitory potential of imipenem (growth curves) [19, 21]: further prolonged for several hours; intrinsic antibacterial activity (no activity up to) ([19]; inhibitor alone): > 128 µg/mL; effect on the inhibitory potential of imipenem (growth curves) [20, 21]: further prolonged for several hours; intrinsic antibacterial activity (no activity up to) ([20]; inhibitor alone): > 128 µg/mL
C[C@H](CS)C(=O)N1c2ccccc2C(C)(C)[C@H]1C(N)=O [6a, (S)-1-((S)-3-Mercapto-2-methylpropanoyl)-3,3-dimethylindoline-2-carboxamide]	17.9 µM	–	–	–	–	–	–	–	–	–	–	–	–	–	–	–	–	–	–	–	chemical stability (in words) [16]: not very stable
